For three molecules, MIC90 results are on record in patent US10376499B2, “Combination therapy for treatment of resistant bacterial infections” (priority 2014, dated 2019).

Each structure is given as a SMILES string. A value given as a limit tells only on which side of the number the result lay.

The experiment has as its system A. baumannii. Briefly: MIC90 of common antibiotics+compound 1, 196 contemporary clinical isolates of A. baumannii (Example 4). As to conditions: B-lactam + Cmpd 1 (4 μg/mL).

Regarding `CO/N=C(\C(=O)N[C@@H]1C(=O)N2C(C(=O)[O-])=C(C[N+]3(C)CCCC3)CS[C@H]12)c1csc(N)n1` [Cefepime], the MIC90 amounted to 32 mg/L.

As for `CC(C)(O/N=C(\C(=O)N[C@@H]1C(=O)N2C(C(=O)[O-])=C(C[n+]3ccccc3)CS[C@H]12)c1csc(N)n1)C(=O)O` [Ceftazidime], the MIC90 is 32 mg/L.

Regarding `C[C@H]1[C@H](NC(=O)/C(=N\OC(C)(C)C(=O)O)c2csc(N)n2)C(=O)N1S(=O)(=O)O` [Aztreonam], the MIC90 is above 64 mg/L.
